According to PubChem BioAssay (NCI):
Where “and” joins values, the source holds several entries; their conditions need not be identical. Equal values may be shown once.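 Tested at 5 concentrations; 48 h exposure; 96-well plates; endpoints linearly interpolated, else capped at highest concentration. GI50: concentration for 50% inhibition of growth. TGI marks complete inhibition of growth.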

How the values were obtained:
Test in all cases: DTP human tumour cell line panel, 48 h
A498 renal = test system: A498 renal
HCC-2998 colon = test system: HCC-2998 colon
HT29 colon = test system: HT29 colon
KM12 colon = test system: KM12 colon
OVCAR-4 ovarian = test system: OVCAR-4 ovarian
SN12C renal = test system: SN12C renal
SNB-75 CNS = test system: SNB-75 CNS
U251 CNS = test system: U251 CNS
UO-31 renal = test system: UO-31 renal
NCI/ADR-RES ovarian = test system: NCI/ADR-RES ovarian

C=CCN1C(=O)C/C(=C2/CCC(=O)N2CC=C)C1=O
TGI (A498 renal): > 100 µM
TGI (HCC-2998 colon): > 100 µM
TGI (HT29 colon): > 100 µM
TGI (KM12 colon): > 100 µM
TGI (OVCAR-4 ovarian): > 100 µM
TGI (SN12C renal): > 100 µM
TGI (SNB-75 CNS): > 100 µM
TGI (U251 CNS): > 100 µM
TGI (UO-31 renal): > 100 µM

NS(=O)(=O)c1ccc(N=Nc2cc3ccccc3c(C(=O)O)c2O)cc1
TGI (A498 renal): > 86.8 µM
TGI (HT29 colon): > 100 µM
TGI (KM12 colon): > 100 µM
TGI (NCI/ADR-RES ovarian): > 100 µM
TGI (OVCAR-4 ovarian): > 80.9 µM
TGI (SN12C renal): > 100 µM
TGI (SNB-75 CNS): > 94.4 µM
TGI (U251 CNS): > 95.2 µM
TGI (UO-31 renal): 99 µM

O=C(c1nc2ccccc2[nH]1)C1C(c2cccc([N+](=O)[O-])c2)C2CC3CCCCC3N2[C@@]12C(=O)Nc1cc(Cl)ccc12 (some centres undefined)
GI50 (HCC-2998 colon): 1.88 µM
TGI (HCC-2998 colon): 3.83 µM
GI50 (HT29 colon): 1.64 µM
TGI (HT29 colon): 4.35 µM
GI50 (KM12 colon): 1.63 µM
TGI (KM12 colon): 3.5 µM
GI50 (NCI/ADR-RES ovarian): 2.51 µM
TGI (NCI/ADR-RES ovarian): 8.18 µM
GI50 (OVCAR-4 ovarian): 2.08 µM
TGI (OVCAR-4 ovarian): 8.87 µM
GI50 (SN12C renal): 1.72 µM
TGI (SN12C renal): 3.62 µM
GI50 (SNB-75 CNS): 1.18 µM
TGI (SNB-75 CNS): 3.63 µM
GI50 (UO-31 renal): 1.38 µM
TGI (UO-31 renal): 3.16 µM

Cc1c(-c2ccnc(N)n2)c2c(n1-c1ccccc1)C(=O)c1ccccc1C2=O
GI50 (HCC-2998 colon): 19.7 µM
TGI (HCC-2998 colon): 46.5 µM
GI50 (KM12 colon): 16.8 µM
TGI (KM12 colon): 45.8 µM
GI50 (NCI/ADR-RES ovarian): 15.8 µM
TGI (NCI/ADR-RES ovarian): 66.8 µM
GI50 (OVCAR-4 ovarian): 58.3 µM
TGI (OVCAR-4 ovarian): > 100 µM
GI50 (SN12C renal): 14.7 µM
TGI (SN12C renal): 53.8 µM
GI50 (SNB-75 CNS): 30 µM
TGI (SNB-75 CNS): > 100 µM
GI50 (U251 CNS): 18.9 µM
TGI (U251 CNS): 74.9 µM
GI50 (UO-31 renal): 13.5 µM
TGI (UO-31 renal): 51.1 µM

Cc1ccc(S(=O)(=O)N/N=C/CN2C(=O)c3ccccc3C2=O)cc1
TGI (A498 renal): > 100 µM
TGI (HCC-2998 colon): > 100 µM
TGI (HT29 colon): > 100 µM
TGI (OVCAR-4 ovarian): > 100 µM
TGI (SN12C renal): > 100 µM
TGI (SNB-75 CNS): > 100 µM
TGI (U251 CNS): > 100 µM
TGI (UO-31 renal): > 100 µM

O=C(/C=C/c1ccc(OCCCOc2ccc(/C=C/C(=O)c3ccc(Cl)cc3)cc2)cc1)c1ccc(Cl)cc1
TGI (HCC-2998 colon): > 100 µM
TGI (HT29 colon): > 100 µM
TGI (KM12 colon): > 100 µM
TGI (OVCAR-4 ovarian): > 100 µM
TGI (SN12C renal): > 100 µM
TGI (SNB-75 CNS): > 100 µM
TGI (U251 CNS): > 100 µM

CCc1cc2c(c3[nH]ccc13)[C@@H](C)C[C@H]2C
TGI (A498 renal): 30.2 µM
TGI (HCC-2998 colon): 38.3 µM
TGI (HT29 colon): 43.8 µM
TGI (KM12 colon): 36.5 µM
TGI (SN12C renal): 29.8 µM
TGI (SNB-75 CNS): 38 µM
TGI (U251 CNS): 31.6 µM
TGI (UO-31 renal): 32.3 µM

CC(C(=O)C(C)O[Si](c1ccccc1)(c1ccccc1)C(C)(C)C)=P(c1ccccc1)(c1ccccc1)c1ccccc1 (centres undefined)
TGI (A498 renal): 16.1 µM
TGI (HCC-2998 colon): 12.3 µM
TGI (HT29 colon): 11.5 µM
TGI (KM12 colon): 12.9 µM
TGI (OVCAR-4 ovarian): 13.9 µM
TGI (SN12C renal): 13.5 µM
TGI (SNB-75 CNS): 8.11 µM
TGI (U251 CNS): 14.1 µM
TGI (UO-31 renal): 17.2 µM

BrCC[N+]12CCCN1CCC2
TGI (A498 renal): > 66.2 µM
TGI (HCC-2998 colon): 54.3 µM
TGI (HT29 colon): 38.2 µM
TGI (KM12 colon): > 94.6 µM
TGI (OVCAR-4 ovarian): 10.7 µM
TGI (SN12C renal): 29.3 µM
TGI (SNB-75 CNS): 32 µM
TGI (U251 CNS): 32.7 µM
TGI (UO-31 renal): 39.2 µM

COc1cccc(C2N3CCCCC3[C@@H]3c4[nH]c5ccccc5c4CCN23)c1OC (some centres undefined)
TGI (A498 renal): 23.8 µM
TGI (HT29 colon): 25.5 µM
TGI (OVCAR-4 ovarian): 31.5 µM
TGI (SN12C renal): 31 µM
TGI (U251 CNS): 30.9 µM
TGI (UO-31 renal): 28.1 µM

CC(C)N(C(=O)C12C3C4C5C3C1(C(=O)N(C(C)C)C(C)C)C5C42)C(C)C (centres undefined)
TGI (A498 renal): > 100 µM
TGI (HCC-2998 colon): > 100 µM
TGI (HT29 colon): > 100 µM
TGI (KM12 colon): > 100 µM
TGI (OVCAR-4 ovarian): > 100 µM
TGI (SN12C renal): > 100 µM
TGI (SNB-75 CNS): > 100 µM
TGI (U251 CNS): > 100 µM
TGI (UO-31 renal): > 100 µM

Clc1cc(-c2csc(Cl)c2)cs1
TGI (A498 renal): > 100 µM
TGI (HT29 colon): > 100 µM
TGI (KM12 colon): > 100 µM
TGI (NCI/ADR-RES ovarian): > 100 µM
TGI (OVCAR-4 ovarian): > 100 µM
TGI (SN12C renal): > 100 µM
TGI (SNB-75 CNS): > 100 µM
TGI (U251 CNS): > 100 µM
TGI (UO-31 renal): > 100 µM

Cc1nc(=O)n2c(c1C(=O)Nc1ccc(Cl)cc1)NCCC2
TGI (HT29 colon): > 100 µM
TGI (KM12 colon): > 100 µM
TGI (OVCAR-4 ovarian): > 100 µM
TGI (SN12C renal): > 100 µM
TGI (U251 CNS): > 100 µM

O=C1CCC(=O)C(C(=O)CCC(=O)Nc2ccc(Cl)cc2)C1 (centres undefined)
TGI (A498 renal): > 100 µM
TGI (HCC-2998 colon): > 100 µM
TGI (HT29 colon): > 100 µM
TGI (KM12 colon): > 100 µM
TGI (OVCAR-4 ovarian): > 100 µM
TGI (SN12C renal): > 100 µM
TGI (U251 CNS): > 100 µM
TGI (UO-31 renal): > 100 µM

COc1ccc(CN[C@H]2CCc3cc(OC)c(OC)c(OC)c3-c3ccc(SC)c(=O)cc32)c(OC)c1OC
TGI (A498 renal): 0.0804 µM
GI50 (HCC-2998 colon): 0.0238 µM
TGI (HCC-2998 colon): 0.0413 µM and 0.0657 µM
TGI (HT29 colon): 0.03 µM
GI50 (KM12 colon): < 0.01 µM
TGI (KM12 colon): 0.228 µM and 0.0408 µM
TGI (OVCAR-4 ovarian): > 100 µM
TGI (SN12C renal): 59.8 µM
GI50 (SNB-75 CNS): 5.77 µM
GI50 (U251 CNS): 0.0299 µM
TGI (U251 CNS): 0.0444 µM and 0.103 µM
GI50 (UO-31 renal): 0.0898 µM
TGI (UO-31 renal): 98.9 µM

CCC[CH2][Sn]1([CH2]CCC)[O]N=Cc2ccccc2[O]1
GI50 (A498 renal): 1.43 µM
TGI (A498 renal): 2.8 µM
GI50 (HCC-2998 colon): 1.32 µM
TGI (HCC-2998 colon): 2.83 µM
GI50 (HT29 colon): 1.75 µM
TGI (HT29 colon): 3.36 µM
GI50 (KM12 colon): 1.47 µM
TGI (KM12 colon): 2.78 µM
GI50 (OVCAR-4 ovarian): 2.03 µM
TGI (OVCAR-4 ovarian): 3.51 µM
GI50 (SN12C renal): 1.27 µM
TGI (SN12C renal): 2.54 µM
GI50 (SNB-75 CNS): 0.359 µM
TGI (SNB-75 CNS): 1.54 µM
GI50 (U251 CNS): 0.387 µM
TGI (U251 CNS): 1.41 µM
GI50 (UO-31 renal): 1.33 µM
TGI (UO-31 renal): 2.61 µM

CC1CCCc2c(CC3CC(=O)NC(=O)C3)nc(N)nc21 (centres undefined)
TGI (A498 renal): > 100 µM
TGI (HCC-2998 colon): > 100 µM
TGI (HT29 colon): > 100 µM
TGI (KM12 colon): > 100 µM
TGI (NCI/ADR-RES ovarian): > 100 µM
TGI (OVCAR-4 ovarian): > 100 µM
TGI (SN12C renal): > 100 µM
TGI (SNB-75 CNS): > 100 µM
TGI (U251 CNS): > 100 µM

COC(=O)C([O][Ge]([CH3])([CH3])[CH3])c1ccccc1 (centres undefined)
GI50 (A498 renal): > 100 µM
TGI (A498 renal): > 100 µM
GI50 (HCC-2998 colon): > 100 µM
TGI (HCC-2998 colon): > 100 µM
GI50 (HT29 colon): > 100 µM
TGI (HT29 colon): > 100 µM
GI50 (KM12 colon): > 100 µM
TGI (KM12 colon): > 100 µM
GI50 (OVCAR-4 ovarian): > 100 µM
TGI (OVCAR-4 ovarian): > 100 µM
GI50 (SN12C renal): > 100 µM
TGI (SN12C renal): > 100 µM
GI50 (SNB-75 CNS): > 100 µM
TGI (SNB-75 CNS): > 100 µM
GI50 (U251 CNS): > 100 µM
TGI (U251 CNS): > 100 µM
GI50 (UO-31 renal): > 100 µM
TGI (UO-31 renal): > 100 µM

CC1(C)CC(=O)C=C(NC(=O)c2ccccc2)C1
TGI (A498 renal): > 100 µM
TGI (HCC-2998 colon): > 100 µM
TGI (HT29 colon): > 100 µM
TGI (KM12 colon): > 100 µM
TGI (OVCAR-4 ovarian): > 100 µM
TGI (SN12C renal): > 100 µM
TGI (SNB-75 CNS): > 100 µM
TGI (U251 CNS): > 100 µM
TGI (UO-31 renal): > 100 µM

COc1ccc2nc(NC(=O)C(=O)C(C#N)c3ccc(CC#N)cc3)sc2c1 (centres undefined)
TGI (A498 renal): > 100 µM
TGI (HCC-2998 colon): > 100 µM
TGI (HT29 colon): > 100 µM
TGI (KM12 colon): > 100 µM
TGI (OVCAR-4 ovarian): > 100 µM
TGI (SN12C renal): > 100 µM
TGI (SNB-75 CNS): > 100 µM
TGI (U251 CNS): > 100 µM
TGI (UO-31 renal): > 100 µM
